Measured values: ChEMBL document CHEMBL1201862, “PubChem BioAssay data set” (2004)
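Dose response: 5 concentrations. Exposure: 48 h. Format: 96-well plates. Endpoint: linear interpolation; highest concentration if not reached. GI50 = concentration required for 50% inhibition of growth.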 Activity calls are given as the source filed them. Rule as the data show it: active = GI50 up to about 1.1 µM and inactive = higher. Non-standard residues stand in square brackets, D forms with d. Residues, ends and D or L forms follow the SMILES beside them. β3hI = CC[CH](C)[CH](N)CC(=O)O

Tests used:
Assay in all cases: NCI-60 cell line screen, 48 h
[1] = tested on: 786-0
[2] = tested on: SK-MEL-5
[3] = tested on: HOP-62
[4] = tested on: HCT-15
[5] = tested on: IGROV-1
[6] = tested on: SR
[7] = tested on: SK-OV-3
[8] = tested on: MDA-MB-231
[9] = tested on: MOLT-4
[10] = tested on: HL-60
[11] = tested on: SN12C
[12] = tested on: NCI-H522
[13] = tested on: OVCAR-8
[14] = tested on: M14
[15] = tested on: MDA-N
[16] = tested on: SNB-19
[17] = tested on: HOP-92
[18] = tested on: UACC-257
[19] = tested on: NCI/ADR-RES
[20] = tested on: RXF 393

Row | Compound | GI50 [1] | GI50 [2] | GI50 [3] | GI50 [4] [µM] | GI50 [5] | GI50 [6] | GI50 [7] | GI50 [8] | GI50 [9] | GI50 [10] | GI50 [11] | GI50 [12] | GI50 [13] | GI50 [14] | GI50 [15] | GI50 [16] | GI50 [17] | GI50 [18] | GI50 [19] | GI50 [20]
1 | CSC1=C(C)C(/C=N/Nc2ccc([N+](=O)[O-])cc2)=C(C)N(c2ccccc2)S1(=O)=O | > 100 µM (inactive) | 17.4 µM (inactive) | > 100 µM (inactive) | 68.9 | 28.2 µM (inactive) | 17.8 µM (inactive) | > 100 µM (inactive) | > 100 µM (inactive) | 5.27 µM (inactive) | 1.28 µM (inactive) | > 100 µM (inactive) | 12.9 µM (inactive) | 17.3 µM (inactive) | 38.6 µM (inactive) | > 100 µM (inactive) | > 100 µM (inactive) | > 100 µM (inactive) | > 100 µM (inactive) | 6.49 µM (inactive) | > 100 µM (inactive)
2 | N#CCC1C2CC3C(C2=O)C13 (stereo not given) | > 100 µM (inactive) | > 100 µM (inactive) | > 100 µM (inactive) | > 100 | > 100 µM (inactive) | > 100 µM (inactive) | > 100 µM (inactive) | > 100 µM (inactive) | > 100 µM (inactive) | – | > 100 µM (inactive) | > 100 µM (inactive) | > 100 µM (inactive) | > 100 µM (inactive) | > 100 µM (inactive) | > 100 µM (inactive) | > 100 µM (inactive) | > 100 µM (inactive) | > 100 µM (inactive) | > 100 µM (inactive)
3 | O=c1oc2c(Br)c(O)c(Br)cc2c2ccccc12 | 42.1 µM (inactive) | 24.5 µM (inactive) | 30.5 µM (inactive) | 19.2 | 30.6 µM (inactive) | 23.2 µM (inactive) | – | 16.9 µM (inactive) | 27.4 µM (inactive) | 23 µM (inactive) | 26.5 µM (inactive) | 15.8 µM (inactive) | 33.6 µM (inactive) | 31.9 µM (inactive) | 31.5 µM (inactive) | 30.3 µM (inactive) | 22.5 µM (inactive) | 18 µM (inactive) | 12.2 µM (inactive) | 38.6 µM (inactive)
4 | CC1=NN(C(=O)CC(=O)Nc2ccccc2C)C(=O)C1/N=N/c1ccc(C(=O)O)cc1 (stereo not given) | > 100 µM (inactive) | > 100 µM (inactive) | > 100 µM (inactive) | > 100 | > 100 µM (inactive) | 43.4 µM (inactive) | – | > 100 µM (inactive) | 88.1 µM (inactive) | > 100 µM (inactive) | > 100 µM (inactive) | > 100 µM (inactive) | > 100 µM (inactive) | > 100 µM (inactive) | > 100 µM (inactive) | > 100 µM (inactive) | 20.5 µM (inactive) | > 100 µM (inactive) | > 100 µM (inactive) | > 100 µM (inactive)
5 | COc1cc2c(/C=C3/C(=O)Nc4ccccc43)c(Cl)[nH]c2cc1C | 0.0605 µM (active) | 0.0467 µM (active) | 0.107 µM (active) | 0.0408 | 0.034 µM (active) | 0.0414 µM (active) | 0.0314 µM (active) | 0.0893 µM (active) | 0.118 µM (active) | 0.035 µM (active) | 0.0845 µM (active) | 0.0446 µM (active) | 0.0869 µM (active) | 0.0366 µM (active) | 0.0191 µM (active) | 0.0486 µM (active) | 1.43 µM (inactive) | 1.52 µM (inactive) | 0.0263 µM (active) | 0.311 µM (active)
6 | Cc1ccc(O)c(-c2cc(-c3cccc(Br)c3)on2)c1 | 40.4 µM (inactive) | 18.1 µM (inactive) | 47.8 µM (inactive) | 31.4 | 14.5 µM (inactive) | 25.1 µM (inactive) | 21.3 µM (inactive) | 30.1 µM (inactive) | 20.8 µM (inactive) | 27 µM (inactive) | 23.8 µM (inactive) | – | 25.8 µM (inactive) | 36.8 µM (inactive) | 25.6 µM (inactive) | 39.3 µM (inactive) | 22.2 µM (inactive) | 48.8 µM (inactive) | 31.8 µM (inactive) | 17.3 µM (inactive)
7 | CC(NC(=O)C(Cc1ccc(OC(=O)c2ccccc2)cc1)NC(=O)OC(C)(C)C)C(=O)NCC(=O)NC(Cc1ccccc1)C(=O)NN (stereo not given) | > 100 µM (inactive) | 34.7 µM (inactive) | 83 µM (inactive) | > 100 | 25.4 µM (inactive) | 13.6 µM (inactive) | > 100 µM (inactive) | 37.9 µM (inactive) | 17.9 µM (inactive) | 16 µM (inactive) | > 10 µM (inactive) | 29.6 µM (inactive) | 65 µM (inactive) | 35.1 µM (inactive) | 37.1 µM (inactive) | 45.6 µM (inactive) | 98.2 µM (inactive) | – | > 100 µM (inactive) | 34.8 µM (inactive)
8 | COc1ccc(/C=C2/C(=O)N(C(=O)c3ccccc3O)N=C2C)cc1OC | 1.26 µM (inactive) | 0.982 µM (active) | 1.99 µM (inactive) | 0.64 | 0.133 µM (active) | 0.644 µM (active) | 1.21 µM (inactive) | > 100 µM (inactive) | 21.2 µM (inactive) | 0.687 µM (active) | 2.42 µM (inactive) | 1.71 µM (inactive) | 0.568 µM (active) | 0.927 µM (active) | 0.489 µM (active) | – | 0.326 µM (active) | 1.42 µM (inactive) | 0.614 µM (active) | 0.0214 µM (active)
9 | OCC1OC(NC(=S)NCCC(F)(F)C(F)(F)C(F)(F)C(F)(F)C(F)(F)C(F)(F)F)C(O)C(O)C1O (stereo not given) | > 100 µM (inactive) | 35.6 µM (inactive) | 71.4 µM (inactive) | > 100 | 65.9 µM (inactive) | > 100 µM (inactive) | > 100 µM (inactive) | > 100 µM (inactive) | 21.6 µM (inactive) | > 100 µM (inactive) | > 100 µM (inactive) | – | – | 56.4 µM (inactive) | > 100 µM (inactive) | 69.8 µM (inactive) | 29.2 µM (inactive) | 54.7 µM (inactive) | > 100 µM (inactive) | 75.3 µM (inactive)
10 | Oc1c(Br)cc(Br)cc1CN(Cc1cc(Br)cc(Br)c1O)C1CCCCC1 | 41.1 µM (inactive) | 16.9 µM (inactive) | 24.4 µM (inactive) | 31.9 | 34.1 µM (inactive) | 32.4 µM (inactive) | 44.6 µM (inactive) | 26.4 µM (inactive) | 43.4 µM (inactive) | – | 33.2 µM (inactive) | 15.3 µM (inactive) | 31.1 µM (inactive) | 34.3 µM (inactive) | 35.9 µM (inactive) | 33.6 µM (inactive) | 32.5 µM (inactive) | 19.5 µM (inactive) | 39.9 µM (inactive) | 31.3 µM (inactive)
11 | CCN1C(=S)n2cccc2C1CC(=O)c1ccc(Cl)cc1 (stereo not given) | > 100 µM (inactive) | – | > 100 µM (inactive) | 51.8 | > 100 µM (inactive) | 57 µM (inactive) | > 100 µM (inactive) | 59.6 µM (inactive) | 22.8 µM (inactive) | 26.7 µM (inactive) | > 100 µM (inactive) | 15.5 µM (inactive) | > 100 µM (inactive) | 89.9 µM (inactive) | 88.5 µM (inactive) | 75.3 µM (inactive) | > 100 µM (inactive) | 18.4 µM (inactive) | 42.4 µM (inactive) | > 100 µM (inactive)
12 | CCC(C)C(CC(=O)N1CCCC1C(=O)NC(C(=O)NC(C(=O)NCC(=O)NC(CC(N)=O)C(=O)NC(C(=O)NC(C(=O)NC(CCCCN)C(N)=O)C(C)CC)C(C)CC)C(C)C)C(C)CC)NC(=O)C(N)C(C)CC (stereo not drawn) (H-I[β3hI]PIVGNIIK-NH2; configuration not given here) | > 50 µM (inactive) | > 50 µM (inactive) | > 50 µM (inactive) | > 50 | > 50 µM (inactive) | > 50 µM (inactive) | > 50 µM (inactive) | > 50 µM (inactive) | > 50 µM (inactive) | > 50 µM (inactive) | > 50 µM (inactive) | > 50 µM (inactive) | > 50 µM (inactive) | > 50 µM (inactive) | > 50 µM (inactive) | > 50 µM (inactive) | > 50 µM (inactive) | > 50 µM (inactive) | > 50 µM (inactive) | –
13 | Oc1cc(CF)nc(S)n1 | > 100 µM (inactive) | > 100 µM (inactive) | > 100 µM (inactive) | > 100 | > 100 µM (inactive) | > 100 µM (inactive) | – | > 100 µM (inactive) | > 100 µM (inactive) | – | > 100 µM (inactive) | > 100 µM (inactive) | > 100 µM (inactive) | > 100 µM (inactive) | > 100 µM (inactive) | > 100 µM (inactive) | > 100 µM (inactive) | > 100 µM (inactive) | > 100 µM (inactive) | > 100 µM (inactive)
14 | Clc1ccc(Cl)c(Nc2ccnc(SCc3ccccc3)n2)c1 | > 100 µM (inactive) | > 100 µM (inactive) | > 100 µM (inactive) | > 100 | > 100 µM (inactive) | > 100 µM (inactive) | > 100 µM (inactive) | > 100 µM (inactive) | > 100 µM (inactive) | – | > 100 µM (inactive) | 84.9 µM (inactive) | > 100 µM (inactive) | 70 µM (inactive) | > 100 µM (inactive) | > 100 µM (inactive) | > 100 µM (inactive) | > 100 µM (inactive) | > 100 µM (inactive) | 20.4 µM (inactive)
15 | COc1cccc(N2C(=O)C3c4[nH]c5ccc(C)cc5c4C4CCC(C)CC4C3C2=O)c1 (stereo not given) | 26.5 µM (inactive) | > 100 µM (inactive) | 1.4 µM (inactive) | > 100 | 89.5 µM (inactive) | > 10 µM (inactive) | 30.3 µM (inactive) | 26.5 µM (inactive) | > 10 µM (inactive) | 10.6 µM (inactive) | > 100 µM (inactive) | – | > 100 µM (inactive) | > 100 µM (inactive) | > 100 µM (inactive) | 73.3 µM (inactive) | 34 µM (inactive) | > 100 µM (inactive) | > 100 µM (inactive) | 18.3 µM (inactive)
